Source: patent publication US20210070748A1, “INHIBITORS OF BRUTONS TYROSINE KINASE” (Pharmacyclics LLC, priority 2015, published 2021)

Tests used:
[1] = target: T1, ITK (Homo sapiens, UniProt Q08881); test: Inhibition of a panel of kinases, in vitro HotSpot kinase assay: ITK; assay type: biochemical
T1 sequence (Q08881 1-620): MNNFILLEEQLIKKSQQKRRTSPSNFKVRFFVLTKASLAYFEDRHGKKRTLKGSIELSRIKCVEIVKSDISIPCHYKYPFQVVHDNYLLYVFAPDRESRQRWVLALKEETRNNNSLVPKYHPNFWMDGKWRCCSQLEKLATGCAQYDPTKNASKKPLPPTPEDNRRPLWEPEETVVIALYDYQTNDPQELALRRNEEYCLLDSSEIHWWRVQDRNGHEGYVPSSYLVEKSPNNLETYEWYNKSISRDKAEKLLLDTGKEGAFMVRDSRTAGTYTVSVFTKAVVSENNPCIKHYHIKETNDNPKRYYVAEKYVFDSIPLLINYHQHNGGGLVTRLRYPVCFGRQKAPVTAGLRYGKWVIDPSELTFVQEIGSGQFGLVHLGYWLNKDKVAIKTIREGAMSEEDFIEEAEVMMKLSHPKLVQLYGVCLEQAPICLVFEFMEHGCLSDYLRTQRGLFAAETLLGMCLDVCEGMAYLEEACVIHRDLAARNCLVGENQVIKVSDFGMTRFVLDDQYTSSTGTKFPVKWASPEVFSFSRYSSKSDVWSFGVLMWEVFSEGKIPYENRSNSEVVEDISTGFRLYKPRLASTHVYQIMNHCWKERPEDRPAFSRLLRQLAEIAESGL
Protocol: (§1) The degree of inhibition of a panel of kinases is determined using the in vitro HotSpot kinase assay (purified enzymes, ^33P-ATP, an appropriate substrate and 1 μM ATP).

[2] = target: T2, TEC (Homo sapiens, UniProt P42680); test: Inhibition of a panel of kinases, in vitro HotSpot kinase assay: TEC; assay type: biochemical
T2 sequence (P42680 1-631): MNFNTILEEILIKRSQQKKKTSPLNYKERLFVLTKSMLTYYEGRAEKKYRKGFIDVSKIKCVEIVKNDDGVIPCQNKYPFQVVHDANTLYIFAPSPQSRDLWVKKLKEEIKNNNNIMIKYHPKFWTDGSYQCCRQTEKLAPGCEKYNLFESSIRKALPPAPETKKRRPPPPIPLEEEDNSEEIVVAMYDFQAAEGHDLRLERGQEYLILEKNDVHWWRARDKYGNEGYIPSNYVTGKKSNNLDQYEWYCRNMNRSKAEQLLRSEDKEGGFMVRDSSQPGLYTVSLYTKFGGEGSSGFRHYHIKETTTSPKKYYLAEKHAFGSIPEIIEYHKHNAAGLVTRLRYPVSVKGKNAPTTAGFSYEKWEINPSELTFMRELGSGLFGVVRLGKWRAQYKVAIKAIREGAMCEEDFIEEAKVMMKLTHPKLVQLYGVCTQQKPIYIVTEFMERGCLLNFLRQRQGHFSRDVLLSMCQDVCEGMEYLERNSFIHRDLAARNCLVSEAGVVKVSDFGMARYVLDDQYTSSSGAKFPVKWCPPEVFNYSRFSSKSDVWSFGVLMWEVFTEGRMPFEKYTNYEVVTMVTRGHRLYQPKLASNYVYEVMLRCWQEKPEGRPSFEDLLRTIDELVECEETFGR
Protocol: as §1

[3] = D-compounds panel data, 1 μM ATP

Row | SMILES | IC50 [1, 3] [µM] | IC50 [2, 3] [µM] | IC50 ([1]; E compounds, Table 17) [µM] | IC50 ([2]; E compounds, Table 17) [µM]
1 | Cc1cc(Nc2nc(N3C[C@@H](NC(=O)N(C)C)CC[C@H]3C)cnc2C(N)=O)sn1 [Example D-75, 5-[(2R,5S)-5-[(dimethylcarbamoyl)amino]-2-methylpiperidin-1-yl]-3-[(3-methyl-1,2-thiazol-5-yl)amino]pyrazine-2-carboxamide] | 1 to 10 | 0.1 to 1 |  | 
2 | C[C@@H]1[C@H](NC(=O)c2ccc(C(F)(F)F)cn2)CCCN1c1cnc(C(N)=O)c(Nc2cnn(C)c2)n1 [Example D-87, 3-[(1-methyl-1H-pyrazol-4-yl)amino]-5-[(2R,3R)-2-methyl-3-[5-(trifluoromethyl)pyridine-2-amido]piperidin-1-yl]pyrazine-2-carboxamide] | 0.1 to 1 | 0.01 to 0.1 |  | 
3 | Cc1cc(Nc2nc(N3CCC[C@@H](NC(=O)N(C)C)[C@H]3CO)cnc2C(N)=O)sn1 [Example D-67, 5-[(2S,3R)-3-[(dimethylcarbamoyl)amino]-2-(hydroxymethyl)piperidin-1-yl]-3-[(3-methyl-1,2-thiazol-5-yl)amino]pyrazine-2-carboxamide] | 1 to 10 | 0.1 to 1 |  | 
4 | C[C@@H]1[C@H](NC(=O)c2ccc(C3CC3)cc2)CCCN1c1cnc(C(N)=O)c(Nc2ccc(OC3CCN(C)CC3)cc2)n1 [Example D-89] | 0.1 to 1 | 0.01 to 0.1 |  | 
5 | Cc1cc(Nc2nc(N3C[C@H](NC(=O)N(C)C)CC[C@H]3C)cnc2C(N)=O)sn1 [Example D-77, 5-[(2R,5R)-5-[(dimethylcarbamoyl)amino]-2-methylpiperidin-1-yl]-3-[(3-methyl-1,2-thiazol-5-yl)amino]pyrazine-2-carboxamide] | > 10 | 1 to 10 |  | 
6 | Cn1cc(Nc2nc(N3CCC[C@H]4[C@@H]3CCN4C(=O)c3ccc(C4CC4)cc3)cnc2C(N)=O)cn1 [Example D-45, 5-[(3aS,7aS)-1-(4-cyclopropylbenzoyl)-octahydro-1H-pyrrolo[3,2-b]pyridin-4-yl]-3-[(1-methyl-1H-pyrazol-4-yl)amino]pyrazine-2-carboxamide] | 1 to 10 | 0.1 to 1 |  | 
7 | C[C@@H]1[C@H](NC(=O)c2ccc(C3CC3)cc2F)CCCN1c1cnc(C(N)=O)c(Nc2cnn(C)c2)n1 [Example D-1, 5-[(2R,3R)-3-(4-cyclopropyl-2-fluorobenzamido)-2-methylpiperidin-1-yl]-3-[(1-methyl-1H-pyrazol-4-yl)amino]pyrazine-2-carboxamide] | 0.1 to 1 | 0.01 to 0.1 |  | 
8 | C[C@@H]1[C@H](NC(=O)c2ccc(C3CC3)cc2)CCCN1c1cnc(C(N)=O)c(Nc2ccc(N3CCN(C)CC3)c(C(F)(F)F)c2)n1 [Example D-92, 5-[(2R,3R)-3-(4-cyclopropylbenzamido)-2-methylpiperidin-1-yl]-3-{[4-(4-methylpiperazin-1-yl)-3-(trifluoromethyl)phenyl]amino}pyrazine-2-carboxamide] | 1 to 10 | 0.01 to 0.1 |  | 
9 | C[C@@H]1[C@H](NC(=O)c2ccc(C(C)(C)O)nc2)CCCN1c1nnc(C(N)=O)c(Nc2cnn(C)c2)n1 [Example D-41, 3-[(2R,3R)-3-[6-(2-hydroxypropan-2-yl)pyridine-3-amido]-2-methylpiperidin-1-yl]-5-[(1-methyl-1H-pyrazol-4-yl)amino]-1,2,4-triazine-6-carboxamide] | 0.1 to 1 | 0.01 to 0.1 |  | 
10 | C[C@@H]1[C@H](NC(=O)c2ccc(C3CC3)nc2)CCCN1c1cnc(C(N)=O)c(Nc2ccc(OC3CCC(F)(F)CC3)cc2)n1 [Example D-48, 5-[(2R,3R)-3-(6-cyclopropylpyridine-3-amido)-2-methylpiperidin-1-yl]-3-({4-[(4,4-difluorocyclohexyl)oxy]phenyl}amino)pyrazine-2-carboxamide] | > 10 | 0.01 to 0.1 |  | 
11 | C[C@H]1C[C@H](NC(=O)c2ccc(C3CC3)cc2)CN(c2cnc(C(N)=O)c(Nc3cnn(C)c3)n2)C1 [Example D-34, 5-[(3S,5S)-3-(4-cyclopropylbenzamido)-5-methylpiperidin-1-yl]-3-[(1-methyl-1H-pyrazol-4-yl)amino]pyrazine-2-carboxamide] | > 10 | 1 to 10 |  | 
12 | C[C@@H]1[C@H](NC(=O)c2ccc(C3CC3)cc2)CCCN1c1cnc(C(N)=O)c(Nc2ccc(N3CCN(C)CC3)cc2)n1 [Example D-81] | 0.1 to 1 | 0.01 to 0.1 |  | 
13 | C[C@@H]1[C@H](NC(=O)C23CC(C2)C3)CCCN1c1cnc(C(N)=O)c(Nc2cnn(C)c2)n1 [Example D-90, 5-[(2R,3R)-3-{bicyclo[1.1.1]pentane-1-amido}-2-methylpiperidin-1-yl]-3-[(1-methyl-1H-pyrazol-4-yl)amino]pyrazine-2-carboxamide] | 0.1 to 1 | 0.01 to 0.1 |  | 
14 | C[C@@H]1[C@H](NC(=O)c2ccc(-c3ncccn3)cc2)CCCN1c1cnc(C(N)=O)c(Nc2cnn(C)c2)n1 [Example D-85, 3-[(1-methyl-1H-pyrazol-4-yl)amino]-5-[(2R,3R)-2-methyl-3-[4-(pyrimidin-2-yl)benzamido]piperidin-1-yl]pyrazine-2-carboxamide] | 0.1 to 1 | ≤ 0.01 |  | 
15 | CN(C)C(=O)N[C@@H]1CCCN(c2cnc(C(N)=O)c(Nc3ccc(C4(C)CCN(C5CCCC5)CC4)cc3)n2)[C@H]1CO [Example D-60, 3-{[4-(1-cyclopentyl-4-methylpiperidin-4-yl)phenyl]amino}-5-[(2R,3R)-3-[(dimethylcarbamoyl)amino]-2-(hydroxymethyl)piperidin-1-yl]pyrazine-2-carboxamide] | 0.1 to 1 | 1 to 10 |  | 
16 | Cn1cc(Nc2nc(N3CCC(NC(=O)c4ccc(C5CC5)cc4)C(O)C3)cnc2C(N)=O)cn1 (single isomer, unassigned) [Example D-28, Trans-5-[4-(4-cyclopropylbenzamido)-3-hydroxypiperidin-1-yl]-3-[(1-methyl-1H-pyrazol-4-yl)amino]pyrazine-2-carboxamide] | 1 to 10 | > 10 |  | 
17 | Cn1cc(Nc2nc(N3CC[C@@H](O)[C@H](NC(=O)c4ccc(C5CC5)cc4)C3)cnc2C(N)=O)cn1 (racemic) [Example D-26, (racemic)-trans-5-[3-(4-cyclopropylbenzamido)-4-hydroxypiperidin-1-yl]-3-[(1-methyl-1H-pyrazol-4-yl)amino]pyrazine-2-carboxamide] | 1 to 10 | 0.1 to 1 |  | 
18 | NC(=O)c1ncc(N2CCC[C@@H](NC(=O)c3ccc(C4CC4)cc3F)C2)nc1Nc1cc(-c2ccccc2)ns1 [Example D-3, 5-[(3R)-3-(4-cyclopropyl-2-fluorobenzamido)piperidin-1-yl]-3-[(3-phenyl-1,2-thiazol-5-yl)amino]pyrazine-2-carboxamide] | > 10 | > 10 |  | 
19 | C=CC(=O)N1CC[C@@H](N(C)c2cnc(C(N)=O)c(Nc3ccc(C4(C)CCN(C5CCCC5)CC4)cc3)n2)C1 [Example E-106, (R)-5-((1-acryloylpyrrolidin-3-yl)(methyl)amino)-3-(4-(1-cyclopentyl-4-methylpiperidin-4-yl)phenylamino)pyrazine-2-carboxamide] |  |  | ≤ 0.01 | ≤ 0.01
